Measured values reported in patent publication US10066004B2 (ARIZONA CANCER THERAPEUTICS, LLC, priority 2010, dated 2018).
Like-named read-outs stand apart in the source and are kept apart here. Positions of bridges follow the written chain, without caps; N, C: chain ends. Non-standard residues stand in square brackets, D forms with d. Residues, ends and D or L forms follow the SMILES beside them. No end group written: not given here. R8 = C=CCCCCCC[C@@](C)(N)C(=O)O; S5 = C=CCCC[C@](C)(N)C(=O)O

Key:
GBM tumors = assay: In vivo tumor growth, daily subcutaneous injections of SAH-EJ1; parameters: species or system mice; conditions: 10 mg/kg daily subcutaneous, vs control mouse
Source text: (§1) EGFR is amplified or mutated in more than 40% of glioblastoma multiforme (GBM) tumors. Referring to FIG. 13-14, inhibitor peptides of the present invention were used to treat GBM cells and tumors.

Ecyl EGFR peptide = assay: ITC binding experiments
[1] = system: patient-derived glioma lines (BT145, BT147, GB16, GB7, GB42); assay: Viability of patient-derived GBM cells; type: cell-based
Source text: FIG. 13A and FIG. 13B show treatment of patient-derived GBM cells with various EGFR inhibitor peptides.
as §1

CaMKII = CaMKII phosphorylation, immunoblot in MDA-MB-468 cells; type: cell-based; conditions: MDA-MB-468, EGF or ionomycin, 15 minutes
Protocol: (a) MDA-MB-468 cells were treated with either 20 μmol/l CP (A-D) or 20 μmol/l EJ1 (E-H) for 0 minutes (A, E), 15 minutes (B, F), 60 minutes (C, G), or 16 hours (D, H). […] (b) BxPC3 cells were serum starved overnight, then treated with 20 μmol/l EJ1 and 50 ng/ml Texas-Red-labeled EGF, and imaged for 30 minutes with an Olympus IX71 deconvolution microscope. Panels A-F are bright field images, D′-F′ are red channel images (Texas-Red-labeled EGF). […] (c) Diagram depicts Ca^2+/CaM-regulated signaling pathway, and inhibitors acting at different targets are indicated. (d) MDA-MB-468 cells were pretreated with 50 μmol/l W-13 (D-F), 10 μmol/l ML-7 (G-I), or 10 μmol/l Y-27632 (J-L) in complete medium at 37° C. for 30 minutes and then treated with vehicle, 20 μmol/l CP, or 20 μmol/l EJ1 in combination with W-13, ML-7, or Y-27632 in complete medium at 37° C. for 15 minutes. Images represent the bright field images. […] Error bars, mean±SD. (f) MDA-MB-468 cells were either in serum-free medium (SF) or stimulated with 100 ng/ml EGF (EGF) and then incubated with water (Vehicle), 20 μmol/l CP, 20 μmol/l EJ1, 2 μmol/l ionomycin, 50 μmol/l W-13, 100 μmol/l KN-93, or EJ1 in combination with ionomycin for 15 minutes. Lysates were immunoblotted with antibodies as indicated. […] Error bars, mean±SD. […]

SKOV3 cells = assay: MTT killing of erbB2 positive ovarian cancer cells, one hour treatment; type: cell-based
Protocol: The erbB2 positive ovarian cancer cell line, SKOV3 was treated with SAH5-EJ1 for one hour with concentrations between 10 uM and 40 uM.

Peptide solubility = type: physicochemical
Protocol: The EJ peptides were synthesized by GenScript (Scotch Plains, N.J.), delivered lyophilized, and stored at −20° C. Peptides were resuspended as needed at 1 mmol/1 in water and stored for up to 2 weeks at 4° C. EJ1 peptide sequences are shown conjugated to the PTD4 domain ([…] (SEQ ID NO: 110)) in FIG. 6c.

[2] = system: MMTV-pyMT murine model of breast cancer; assay: Tumor growth and lung metastasis in MMTV-pyMT transgenic mice; type: in vivo, mouse; conditions: 20 μg/g body weight i.p. daily
Protocol: (a) MMTV-PyMT mice were allowed to develop tumors of 50 mm^3 before being treated once daily (i.p. injection) with indicated doses of Ctrls (20 μg/g CP5 (n=3), PBS (n=2)) and EJ1 (10 μg/g (n=6), 15 μg/g (n=1), and 20 μg/g (n=7), or twice-daily doses of 40 μg/g (n=3)). Peaks represent average total tumor burden growth rate in mm^3 per day for each treatment. Error bars, mean±SD. *P<0.05; **P<0.005, Student's t-test. (b) Control (12 mice (20 μg/g CP5 (n=5), PBS (n=7), n=100 tumors) vs. 20 μg/g EJ1-treated (eight mice, n=72 tumors) individual tumor growth rates and representative tumor images (insets). Mean denoted by horizontal line. **P<0.005, Student's t-test. (c) Mice were treated with 10, 15, or 20 μg/g body weight EJ1 or control for 21 days and tumors were measured twice weekly. Box plots are shown for day 0 (10 μg/g EJ1: n=6 mice, 21 tumors; 15 μg/g EJ1: n=1 mouse, two tumors; 20 μg/g EJ1: n=8 mice, 24 tumors; Ctrls: n=12 mice, 41 tumors) and final day (10 μg/g EJ1: n=6 mice, 46 tumors; 15 μg/g EJ1: n=1 mouse, nine tumors; 20 μg/g EJ1: n=8 mice, 72 tumors; Ctrls: n=12 mice, 100 tumors). […]
Additionally, many resected EJ1-treated tumors were necrotic in appearance compared with those in controls (FIG. 11b (insets)). […] The MMTV-pyMT transgenic mice present with lung metastasis; we therefore evaluated the effects of EJ1 on lung metastasis. […]

MDA-MB-468 cells = conditions: MDA-MB-468, 20 uM peptide, 3 days (FIG. 1)
Protocol: Inhibitor peptides were evaluated on their ability to inhibit growth of triple-negative breast cancer cells MDA-MB-468 (20 uM peptide treatment). […] SEQ ID NO: 13 is […] SEQ ID NO: 14 is […] SEQ ID NO: 15 is […] SEQ ID NO: 16 is […] SEQ ID NO: 17 is […] SEQ ID NO: 18 is […] SEQ ID NO: 19 is […] SEQ ID NO: 20 is […] SEQ ID NO: 21 is […] SEQ ID NO: 22 is […] SEQ ID NO: 23 is […] SEQ ID NO: 24 is […] SEQ ID NO: 25 is […]
(§2) Peptide designations are indicated in the right column. Changes from EJ1 in EJ2-11 are denoted in the second column from the right. (d-j) Cell lines were treated daily with 20 μmol/l EJ1, 20 μmol/l CP, or vehicle (water) for 3 days unless otherwise noted, and cell viability was determined by the MTT assay. Growth rates for vehicle-treated cells were set to 100%, and CP and EJ1 rates were adjusted accordingly. *P<0.05, **P<0.01, ***P<0.001 (Student's t-test). Error bars, mean±SD. (From Hart et al., 2013, Molecular Therapy 21(11):1996-2007, the disclosure of which is incorporated herein in its entirety.)
To do this, we created cell-penetrating peptides to act as dominant-negative “decoys,” thereby inhibiting endogenous jxm interactions. Peptides specific for jxm subdomains were synthesized downstream of the protein transduction domain-4 (PTD4; FIG. 6). Next, the effect of peptide treatment on cell viability was analyzed on the breast cancer cell line MDA-MB-468 by MTT (3-[4,5-dimethylthiazol-2-yl]-2,5-diphenyl tetra-zolium bromide) analysis after 3 days of treatment.
(§3) Protein lysate preparation, immunoprecipitation, and western blotting were performed as described previously. For cross-linking, cells were first incubated according to manufacturer instructions with 3 μmol/l DMS, a membrane-permeable, noncleavable, cross-linking agent (Thermo Scientific, Waltham, Mass.). Cells were analyzed both by the MTT assay following manufacturer's instructions (Sigma) and using a U-Quant Spectrophotometer (Bio-TEK Instruments, Winooski, Vt.).

T47D cells = conditions: human, 3 day, 20 μmol/l
Protocol: as §2, §3

MDA-MB-231 cells = conditions: human, 3 day, 20 μmol/l
Protocol: as §2, §3

MIA PaCa-2 cells = conditions: human, 3 day, 20 μmol/l
Protocol: as §2, §3

AsPC1 cells = conditions: human, 3 day, 20 μmol/l
Protocol: as §2, §3

CC[C@H](C)[C@H](NC(=O)[C@H](Cc1c[nH]cn1)NC(=O)[C@H](CCCNC(=N)N)NC(=O)[C@H](CCCNC(=N)N)NC(=O)[C@H](CCCNC(=N)N)NC(=O)[C@H](CCSC)NC(=O)[C@H](Cc1ccccc1)NC(=O)[C@H](C)NC(=O)[C@H](CCCNC(=N)N)NC(=O)[C@H](C)NC(=O)[C@H](CCC(N)=O)NC(=O)[C@H](CCCNC(=N)N)NC(=O)[C@H](C)NC(=O)[C@H](C)NC(=O)[C@H](C)NC(=O)[C@H](CCCNC(=N)N)NC(=O)[C@H](C)NC(=O)[C@@H](N)Cc1ccc(O)cc1)C(=O)N[C@]1(C)CCCCCCC=CCCC[C@@](C)(C(=O)N[C@@H](CC(C)C)C(=O)N[C@@H](CC(C)C)C(=O)N[C@@H](CCC(N)=O)C(=O)N[C@@H](CCC(=O)O)C(=O)N[C@@H](CCCNC(=N)N)C(=O)N[C@@H](CCC(=O)O)C(=O)O)NC(=O)[C@H](CCCNC(=N)N)NC(=O)[C@H](CC(C)C)NC(=O)[C@H]([C@@H](C)O)NC(=O)[C@H](CCCNC(=N)N)NC(=O)[C@H](CCCCN)NC(=O)[C@H](CCCNC(=N)N)NC1=O [SAH-EJ1] (H-YARAAARQARAFMRRRHI[R8]RKRTLR[S5]LLQERE-OH; staple 19-26; N-terminus and C-terminus assumed)
tumor growth in vivo (GBM tumors): growth of the tumor is reduced
tumor growth in vivo (GBM tumors; listed as stapled EJ): decrease tumor growth
Kd (Ecyl EGFR peptide; 100 uM and 150 uM experiments, read-out: Kd, average of both experiments): ~2850 nM
Kd (Ecyl EGFR peptide; peptide at 100 uM, target at 500 uM, read-out: Kd): 2500 nM
Kd (Ecyl EGFR peptide; peptide at 150 uM, target at 500 uM, read-out: Kd): 3200 nM
cell viability of patient-derived glioma lines ([1]; BT145 and BT147 (FIG. 13A)): decrease in viability
cell viability of patient-derived glioma lines ([1]; GB16, GB7, GB42 and BT147, 24 hr treatment (FIG. 13B)): decrease in viability

C[C@H](CCC(=O)O)C[C@H](C)C[C@H](C)C(=O)/C=C(\O)[C@H](C)C[C@H](C)C/C=C/[C@@H](C)[C@@H](O)[C@@H](C)[C@@H](O)C[C@@H]1CC[C@@](C)([C@H]2CC[C@@](C)([C@@H](C)O)O2)O1 [ionomycin]
CaMKII phosphorylation (CaMKII): induced CaMKII phosphorylation

SAH5-EJ1: stapled EJ1: PTD4 domain combined with SEQ ID NO: 103 (YARAAARQARAFMRRRHIVRKR[R8]LRRLLQ[S5]RE; staple 23-30 (inferred))
concentration inducing optimal cell killing (SKOV3 cells; SKOV3, one hour of treatment): 5.0 to 10.0 µM
cell killing (MTT) (SKOV3 cells; SKOV3, one hour, 10 uM to 40 uM): all cells were killed

YARAAARQARAFMAAAHIVAAATLAALLQERE [EJ8]
solubility of peptide (Peptide solubility): insoluble

YARAAARQARAFMRRRHIVRKRTLRRLLQERE [EJ1]
toxicity (weight loss, grooming behavior, gross changes to organs upon necropsy) [2]: no toxicity
survival rate of cells after 3 days (MDA-MB-468 cells): 5%
reduction of cellular viability (T47D cells): 60%
reduction of cellular viability (MDA-MB-231 cells): 10%
reduction of cellular viability (MIA PaCa-2 cells): 1%
reduction of cellular viability (AsPC1 cells): 10%
